For assay [1], the target named is T1, proMMP9(20-445;ΔFnII) (SEQ ID NO:6) (Homo sapiens, UniProt P14780, DEL216-390).
T1 construct: start methionine (N); made in house; host or cells: E. coli BL21(DE3) RIL
T1 sequence (P14780 with tags, fused parts or gaps DEL216-390): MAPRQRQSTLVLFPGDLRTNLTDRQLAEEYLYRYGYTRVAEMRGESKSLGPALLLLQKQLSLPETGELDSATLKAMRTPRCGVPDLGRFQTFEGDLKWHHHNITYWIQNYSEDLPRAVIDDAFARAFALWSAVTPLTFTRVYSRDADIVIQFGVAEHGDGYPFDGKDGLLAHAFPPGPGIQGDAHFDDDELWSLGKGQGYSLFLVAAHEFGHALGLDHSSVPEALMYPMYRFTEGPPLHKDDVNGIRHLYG
The assay is described as follows: ThermoFluor binding assay with proMMP9(20-445;ΔFnII). The note with it: pH 7.0. Put shortly:
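proMMP9(20-445;ΔFnII) at 2.8 μM with 50 μM 1,8-ANS in 50 mM HEPES pH 7.0, 100 mM NaCl, 0.001% Tween-20, 2.5 mM MgCl2, 300 μM CaCl2; compounds serially diluted in DMSO. Heated 40–90 °C at 1 °C/min, fluorescence read at 500±25 nm. Tm fit by standard equations; binding fit using DSC/TF-derived thermodynamic parameters.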

For assay [2], the target named is T2, full-length proMMP9(1-707) (SEQ ID NO:1) (Homo sapiens, UniProt P14780, R574P).
T2 construct: made in house; host or cells: HEK293 (proMMP9, secreted); E. coli (MMP3)
As to the kind of experiment: ProMMP9/MMP3 DQ Gelatin Activation Assay. Format: biochemical. The following applies: 20 nM proMMP9, 10 nM MMP3, DQ gelatin; read-out: ProMMP9/MMP3 DQ gel Activation Assay, IC50.
Method: Compounds were assessed for inhibition of proMMP9 activation by catalytic MMP3 using a quenched fluorescein gelatin substrate (DQ gelatin, Invitrogen D12054) that fluoresces upon cleavage by activated MMP9. The assay buffer employed was 50 mM Hepes, pH 7.5, 10 mM CaCl2, 0.05% Brij-35. DMSO was included at a final concentration of 0.2%, arising from the test compound addition. […] Test compounds in DMSO were diluted 250-fold in assay buffer at 4× the final concentration. The reaction volume was 12 μL, and all reactions were conducted in triplicate. […] The plate was sealed and incubated for 30 min at 37° C. […] Immediately following the 30 min incubation, 4 μL of 40 μg/ml DQ gelatin substrate was added (freshly diluted in assay buffer), and incubated for 10 min at room temperature. The reaction was stopped by the addition of 4 μL of 50 mM EDTA, and the resulting activity associated with catalytic MMP9 was determined at 485 nm excitation, 535 nm emission using an Envision fluorescent reader (Perkin Elmer). Reactivity of residual MMP3 towards DQ gelatin was minimal under these conditions. Percent inhibition of test compounds were determined from suitable positive (DMSO only in assay buffer) and negative (EDTA added prior to reaction initiation) controls. Plots of % inhibition vs. test compound concentration were fit to a four-parameter logistics equation (GraphPad Prism® software) for determination of IC50.

Assay [3] deals with T3, proMMP9(67-444;ΔFnII) (SEQ ID NO:5) (Homo sapiens, UniProt P14780, DEL216-390).
T3 construct: start methionine (N); made in house; host or cells: E. coli BL21(DE3) RIL
T3 sequence (P14780 with tags, fused parts or gaps DEL216-390): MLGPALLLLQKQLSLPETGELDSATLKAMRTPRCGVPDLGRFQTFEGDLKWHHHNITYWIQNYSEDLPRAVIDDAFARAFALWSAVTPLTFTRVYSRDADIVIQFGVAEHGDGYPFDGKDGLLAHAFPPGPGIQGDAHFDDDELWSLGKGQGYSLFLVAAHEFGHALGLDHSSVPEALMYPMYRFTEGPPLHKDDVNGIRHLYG
The assay is described as follows: ThermoFluor binding assay with proMMP9(67-444;ΔFnII). The note with it: pH 7.0. Put shortly: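 Thermal shift binding with 3.5 μM proMMP9(67-444;ΔFnII) and 50 μM 1,8-ANS in 50 mM HEPES pH 7.0, 100 mM NaCl, 2.5 mM MgCl2, 300 μM CaCl2, 0.001% Tween-20, with serially diluted compound. Heated 40 to 90° C at 1° C/min; fluorescence-derived Tm fitted using DSC/ThermoFluor thermodynamic parameters.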
(Differential scanning fluorimetry follows unfolding on heating by fluorescence.)

Assay [4] has as its target T4, proMMP13(1-268) (SEQ ID NO:7) (Homo sapiens, UniProt P45452). The assay is described as follows: ThermoFluor binding assay with proMMP13(1-268). The arrangement: 6xHis (C); made in house. The following applies: pH 7.0. Put shortly:
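Thermal shift binding with 3.5 μM protein and 25 μM 1,8-ANS in 50 mM HEPES pH 7.0, 100 mM NaCl, 0.001% Tween-20, 2.5 mM MgCl2, 300 μM CaCl2. Samples were heated 40 to 90 °C at 1 °C/min, fluorescence read at 500 nm. Tm shifts across an 11-point DMSO dilution series were fitted with DSC-derived thermodynamic parameters.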

Assay [5] concerns the target T2, full-length proMMP9(1-707) (SEQ ID NO:1). As to the kind of experiment: proMMP9/MMP3 P126 Activation Assay. The following applies: 20 nM proMMP9, 20 nM MMP3, 80 min 37° C. Format: biochemical. The protocol:
The reaction volume was 50 μL. […] Reactivity of residual MMP3 towards P-126 substrate was minimal under these conditions.

Assay [6] deals with T4, proMMP13(1-268) (SEQ ID NO:7). The assay is described as follows: ProMMP13/Plasmin P126 Activation Assay. On the set-up: 6xHis (C); made in house; host or cells: HEK293 (transient, secreted). The note with it: 8 nM proMMP13, 16 nM plasmin, 40 min 37° C. Format: biochemical. How it is done:
On the day of assay, proMMP13(1-268) (SEQ ID NO:7) purified from HEK293 cells and plasmin were diluted to 160 nM and 320 nM, respectively, in assay buffer. The reaction volume was 50 μL. […] The plate was sealed and incubated for 40 min at 37° C. […] Plasmin was not reactive towards P-126 substrate under these conditions.

Counter-ions that a name gives are not always drawn. A value given as a limit tells only on which side of the number the result lay.

Broadly, the Kd is a measure of binding affinity in units of concentration. A lower Kd goes with tighter binding.

T2 sequence (P14780 20-707 R574P): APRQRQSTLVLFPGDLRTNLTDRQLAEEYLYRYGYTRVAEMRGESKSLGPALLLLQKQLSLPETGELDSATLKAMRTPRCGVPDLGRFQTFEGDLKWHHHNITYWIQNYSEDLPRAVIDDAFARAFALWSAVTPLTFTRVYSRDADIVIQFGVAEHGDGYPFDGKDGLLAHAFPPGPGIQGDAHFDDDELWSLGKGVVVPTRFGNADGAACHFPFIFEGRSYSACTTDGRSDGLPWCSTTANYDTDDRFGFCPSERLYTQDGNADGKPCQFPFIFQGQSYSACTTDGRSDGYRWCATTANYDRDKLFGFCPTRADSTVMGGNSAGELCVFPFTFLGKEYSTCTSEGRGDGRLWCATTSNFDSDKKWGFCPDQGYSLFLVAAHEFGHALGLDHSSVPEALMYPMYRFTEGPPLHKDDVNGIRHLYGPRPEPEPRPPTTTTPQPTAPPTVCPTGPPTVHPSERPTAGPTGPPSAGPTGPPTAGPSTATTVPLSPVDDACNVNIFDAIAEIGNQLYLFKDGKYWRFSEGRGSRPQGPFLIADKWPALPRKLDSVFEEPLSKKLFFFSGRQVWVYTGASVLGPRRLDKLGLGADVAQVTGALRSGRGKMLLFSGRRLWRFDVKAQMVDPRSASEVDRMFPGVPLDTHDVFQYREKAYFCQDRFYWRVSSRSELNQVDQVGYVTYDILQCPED

With `COc1ccc(C)cc1Nc1nc(-c2sc(NC(C)=O)nc2C)cs1` [Example 11, N-[2-(2-Methoxy-5-methyl-phenylamino)-4′-methyl-[4,5′]bithiazolyl-2′-yl]-acetamide], the figures for the dissociation constant Kd in assay [1], in assay [3] and in assay [4] were 9.8 µM, 1.1 µM and 30 µM, respectively. Further, in assay [2], the IC50 stood at 9 µM.
As for `Cc1nc(CN2CCCCC2)sc1-c1csc(Nc2cc(C(N)=O)ccc2OC(C)C)n1` [Example 128, 4-Isopropoxy-3-(4′-methyl-2′-piperidin-1-ylmethyl-[4,5′]bithiazolyl-2-ylamino)-benzamide.TFA], the IC50 in assay [5] amounted to 1.3 µM. The dissociation constant Kd in assay [1] is 0.5 µM; in assay [3], 2.7 µM; in assay [4], 5.2 µM.
The corresponding values for `Cc1nc(CN(C)C)sc1-c1csc(Nc2cc(C(N)=O)ccc2OC(C)C)n1` [Example 129, 3-(2′-Dimethylaminomethyl-4′-methyl-[4,5′]bithiazolyl-2-ylamino)-4-isopropoxy-benzamide.TFA] are 1.2 µM, 0.72 µM, 4.7 µM and 5.1 µM.
The matching figures for `Cc1nc(CN2CCCC2)sc1-c1csc(Nc2cc(C(N)=O)ccc2OC(C)C)n1` [Example 130, 4-Isopropoxy-3-(4′-methyl-2′-pyrrolidin-1-ylmethyl-[4,5′]bithiazolyl-2-ylamino)-benzamide.TFA]: 0.7 µM, 0.55 µM, 3 µM and 4.9 µM.
The corresponding values for `Cc1nc(CN2CCN(C)CC2)sc1-c1csc(Nc2cc(C(N)=O)ccc2OC(C)C)n1` [Example 131, 4-Isopropoxy-3-[4′-methyl-2′-(4-methyl-piperazin-1-ylmethyl)-[4,5′]bithiazolyl-2-ylamino]-benzamide.TFA] are 0.73 µM, 0.77 µM, 3.3 µM and 5.6 µM.
Consider `Cc1nc(S(C)(=O)=O)sc1-c1csc(Nc2cc(C(N)=O)ccc2OC(C)C)n1` [Example 132, 4-Isopropoxy-3-(2′-methanesulfonyl-4′-methyl-[4,5′]bithiazolyl-2-ylamino)-benzamide], for which the IC50 in assay [5] was 0.72 µM. The figures for the Kd in assay [1], in assay [3] and in assay [4] were 4.3 µM, 21 µM and 11 µM, respectively.
The molecule `Cc1nc(CN(C)CCN(C)C)sc1-c1csc(Nc2cc(C(N)=O)ccc2OC(C)C)n1` [Example 133, 3-(2′-{[(2-Dimethylamino-ethyl)-methyl-amino]-methyl}-4′-methyl-[4,5]bithiazolyl-2-ylamino)-4-isopropoxy-benzamide.TFA] showed an IC50 in assay [5] of 0.66 µM. Besides, the dissociation constant (Kd) was determined as 0.97 µM in assay [1], 4 µM in assay [3] and 3.8 µM in assay [4].
The molecule `COc1ccc(-c2cn[nH]c2)cc1Nc1nc(-c2sc(C)nc2C)cs1` [Example 138, (2′,4′-Dimethyl-[4,5′]bithiazolyl-2-yl)-[2-methoxy-5-(1H-pyrazol-4-yl)-phenyl]-amine] returned an IC50 in assay [5] of 0.73 µM. Besides, the dissociation constant Kd in assay [1] came out at 1.7 µM; in assay [3], 0.48 µM; in assay [4], 0.83 µM.
For the molecule `COc1ccc(-c2ccnn2C)cc1Nc1nc(-c2sc(C)nc2C)cs1` [Example 139], the IC50 in assay [5] stood at 5.2 µM. For the same molecule, the Kd worked out at 75 µM in assay [1], 11 µM in assay [3] and 8.1 µM in assay [4].
The matching figures for `C=Cc1ccc(OC)c(Nc2nc(-c3sc(C)nc3C)cs2)c1` [Example 140, (2′,4′-Dimethyl-[4,5′]bithiazolyl-2-yl)-(2-methoxy-5-vinyl-phenyl)-amine]: 5.5 µM, > 95 µM, 45 µM and 26 µM.
The corresponding values for `COc1ccc(-c2cccnc2)cc1Nc1nc(-c2sc(C)nc2C)cs1` [Example 141, (2′,4′-Dimethyl-[4,5′]bithiazolyl-2-yl)-(2-methoxy-5-pyridin-3-yl-phenyl)-amine] are ~12 µM, > 95 µM, 15 µM and 4.3 µM.
For `COc1ccc(-c2nccs2)cc1Nc1nc(-c2sc(C)nc2C)cs1` [Example 142, (2′,4′-Dimethyl-[4,5′]bithiazolyl-2-yl)-(2-methoxy-5-thiazol-2-yl-phenyl)-amine.TFA], in assay [5], the IC50 amounted to 11 µM. Moreover, the Kd was > 95 µM in assay [1], 58 µM in assay [3] and 6.7 µM in assay [4].
The corresponding values for `COc1ccc(-c2cncn2C)cc1Nc1nc(-c2sc(C)nc2C)cs1` [Example 143, (2′,4′-Dimethyl-[4,5′]bithiazolyl-2-yl)-[2-methoxy-5-(3-methyl-3H-imidazol-4-yl)-phenyl]-amine] are ~6 µM, 62 µM, 16 µM and 6 µM.
The corresponding values for `Cc1nc(C)c(-c2csc(Nc3cc(S(N)(=O)=O)ccc3OC(F)(F)F)n2)s1` [Example 144, 3-(2′,4′-Dimethyl-[4,5′]bithiazolyl-2-ylamino)-4-trifluoromethoxy-benzenesulfonamide.HCl] are 1.6 µM, 1 µM, 2 µM and 3.6 µM.
With `CC(=O)Nc1nc(C)c(-c2csc(Nc3cccc4cccnc34)n2)s1` [Example 146, N-[4′-Methyl-2-(quinolin-8-ylamino)-[4,5′]bithiazolyl-2′-yl]-acetamide.TFA], the results for the Kd in assay [1] and in assay [3] were 4.6 µM and 1.3 µM, respectively. Moreover, the IC50 in assay [2] stood at 5.9 µM.
The matching figures for `COc1ncccc1Nc1nc(-c2sc(NC(C)=O)nc2C)cs1` [Example 147, N-[2-(2-Methoxy-pyridin-3-ylamino)-4′-methyl-[4,5′]bithiazolyl-2′-yl]-acetamide.TFA]: 12 µM, 7.6 µM and 20 µM.
For `CC(=O)Nc1nc(C)c(-c2csc(Nc3cccnc3O)n2)s1` [Example 148, N-[2-(2-Hydroxy-pyridin-3-ylamino)-4′-methyl-[4,5′]bithiazolyl-2′-yl]-acetamide.HBr], the dissociation constant Kd in assay [1] and in assay [3] was > 8 µM in each case. Also, in assay [2], the IC50 turned out to be 6 µM.
For `CC(=O)Nc1nc(C)c(-c2csc(Nc3cccc4ccccc34)n2)s1` [Example 149, N-[4′-Methyl-2-(naphthalen-1-ylamino)-[4,5′]bithiazolyl-2′-yl]-acetamide.HCl], the dissociation constant (Kd) in assay [1] came out at 5 µM; in assay [3] it was 4.4 µM; in assay [4], 40 µM. Further, in assay [2], the IC50 worked out at 27 µM.
Molecule `CC(C)Oc1ccc(C(N)=O)cc1Nc1nc(-c2sc(N)nc2C(F)(F)F)cs1` [Example 150, 3-(2′-Amino-4′-trifluoromethyl-[4,5′]bithiazolyl-2-ylamino)-4-isopropoxy-benzamide] came in with an IC50 in assay [5] of 1.2 µM. For the same molecule, the dissociation constant Kd in assay [1] was found to be 0.16 µM; in assay [3], 1.3 µM; in assay [4] it was 0.22 µM.
As for `Cc1nc(C2CCN(C)CC2)sc1-c1csc(Nc2cc(C(N)=O)ccc2OC(C)C)n1` [Example 157, 4-Isopropoxy-3-((4′-methyl-2′-(1-methylpiperidin-4-yl)-[4,5′-bithiazol]-2-yl)amino)benzamide.TFA], the IC50 in assay [5] was determined as 0.033 µM; in assay [6] it was 0.86 µM.

The record behind these values is patent US20120129842A1, “BISTHIAZOLE INHIBITORS OF PRO-MATRIX METALLOPROTEINASE ACTIVATION” (priority 2010, published 2012).
